Laboratory results as given in US8546343B2, “Aminoglycoside antibiotics targeting bacterial 16S ribosomal RNA” (Eidgenoessische Technische Hochschule Zurich, priority 2007, dated 2013).

How the values were obtained:
[1] = tested on: AG011 Staph. aureus clinical isolate; assay: Standard MIC assay, AG011; type: cell-based, Staphylococcus aureus
Procedure: (§1) Selected compounds of the present invention were tested for antibiotic susceptibility using clinical isolates of Staphylococci, Enterococci and Escherichia coli as well as strains carrying defined resistance determinants and compared to well known antibiotics of the state of the art. Drug susceptibility was determined in standard MIC assays, i.e. by determination of the minimal drug concentration required to inhibit bacterial growth in vitro.

AG016 S. aureus BM3002 = assay: Standard MIC assay, AG016; type: cell-based, Staphylococcus aureus
Procedure: as §1

[2] = tested on: AG019 E. faecalis JH2-2 (APH2″ AAC6′); assay: Standard MIC assay, AG019; type: cell-based, Enterococcus faecalis; conditions: E. faecalis JH2-2 (APH2″ AAC6′)
Procedure: as §1

AG017 E. faecalis JH2-2 = assay: Standard MIC assay, AG017; type: cell-based, Enterococcus faecalis
Procedure: as §1

[3] = tested on: AG015 S. aureus BM3002 (ANT4′); assay: Standard MIC assay, AG015; type: cell-based, Staphylococcus aureus; conditions: S. aureus BM3002 (ANT4′)
Procedure: as §1

[4] = tested on: AG013 Staph. epi. clinical isolate; assay: Standard MIC assay, AG013; type: cell-based, Staphylococcus epidermidis
Procedure: as §1

[5] = tested on: AG014 Staph. epi. clinical isolate; assay: Standard MIC assay, AG014; type: cell-based, Staphylococcus epidermidis
Procedure: as §1

Neomycin [reference compound]
Minimal inhibitory concentrations AG011 [1]: 4 mg/L
Minimal inhibitory concentrations AG016 (AG016 S. aureus BM3002): 1 to 2 mg/L
Minimal inhibitory concentrations AG019 [2]: >256 mg/L
Minimal inhibitory concentrations AG017 (AG017 E. faecalis JH2-2): 64 mg/L
Minimal inhibitory concentrations AG015 [3]: 128 mg/L
Minimal inhibitory concentrations AG013 [4]: 64 to 128 mg/L
Minimal inhibitory concentrations AG014 [5]: 32 mg/L
